Test results published in PubChem BioAssay AID2060357 (Molecular Pharmacology Branch, DTP, NCI, 2025).
Where “and” joins values, the source holds several entries; their conditions need not be identical. Equal entries are not always repeated.

Tested on: 292921-168-R-J2-PDC spheroids with HUVEC/MSC, viability
Assay: Anticancer human tumor 292921-168-R-J2-PDC patient-derived pancreatic carcinoma cell line growth inhibition [TAK]
Details: for viability, T/C: stronger effect = lower value
Description: Combinatorial screen of targeted agents with TAK-243 and ipatasertib in multi-cell type tumor spheroids
A high-throughput screen of multi-cell type tumor spheroids was designed to identify active combinations of targeted small molecules and TAK-243 or ipatasertib. Complex spheroids include a stromal component modeled by human endothelial cells (HUVEC) and fibroblasts modeled by human mesenchymal stem cells (MSCs). The concentration ranges selected for each drug and investigational agent were based upon clinically achievable concentrations if the clinical Cmax of the agent was known.
Compounds. The drugs and investigational agents: TAK-243 (785004), ipatasertib (767898), everolimus (733504), selumetinib (741078), bortezomib (756655), trametinib (758246), ixazomib (758254), vemurafenib (761431), dabrafenib (764134), sapanisertib (764658), alpelisib (765974), and copanlisib (816437), were obtained from the National Cancer Institute (NCI) Developmental Therapeutics Program Chemical Repository. The FDA-approved anticancer drug set is available from the NCI Developmental Therapeutics Program. […] The stock solutions were prepared in dimethyl sulfoxide (DMSO, Sigma-Aldrich, St. Louis, MO, cat. D2650) at 800-fold the tested concentration and stored at -70 degrees C prior to their use. All drugs and investigational agents were tested over a range starting from a high concentration at or near the clinical Cmax and decreasing in half-log increments. If the clinical Cmax for an agent had not been determined, the highest concentration tested was 10 microM.
NCI60 Cell Culture. NCI60 cell lines were obtained from the NCI Developmental Therapeutics Program Tumor Repository. For each lot of cells, the Repository performed Applied Biosystems AmpFLSTR Identifiler testing with PCR amplification to confirm consistency with the published Identifier STR profile for each cell line. Cells were kept in continuous culture for no more than 20 passages. The optimal seeding densities for each of the cell lines at each time point assessed were determined prior to performing the concentration response studies. Briefly, the NCI60 human tumor lines were grown as monolayers in RPMI 1640 medium supplemented with 10% FBS and 2 mmol/L L-glutamine.
An additional 2 lines were from the NCI60 cell line panel including melanomas, MALME-3M and SK-MEL-2. Pooled donor human umbilical vein endothelial cells (HUVEC, Lonza, cat. CC-2519) and human mesenchymal stem cells (hMSC, Lonza, cat. PT-2501) were purchased from Lonza (Walkersville, MD).
PDMR cell lines were grown in complete medium (DC medium): Dulbecco's modified Eagle's medium (DMEM)/F12 supplemented with 5% fetal bovine serum (FBS), 2 mM L-glutamine, 100 U/mL penicillin and 100 µg/ml streptomycin, 0.4 µg/ml hydrocortisone, 10 ng/ml epidermal growth factor (EGF) recombinant human protein, 24 µg/mL adenine, and 0.1 mg/mL primocin. During culture from frozen stock vials, PDMR cells were cultured in the same medium containing 10 µM Y-27632 (see Table 3). The PDCs were cultured in complete DMEM/F12 media without 10 microM Y-27632 dihydrochloride for at least two passages prior to the screen. The pooled donor HUVEC and hMSC were cultured in endothelial cell growth medium 2 (PromoCell, Heidelberg, Germany, cat. C-22011) and mesenchymal stem cell growth medium 2 (PromoCell, cat. C-28009), respectively. For all experiments, HUVEC and hMSC were used at passages </=5.
For the pre-screen, cell seeding densities were determined from a titration spanning the range from 5,000 to 313 cells per well. The mct-spheroids including 60% malignant cells, 25% HUVEC and 15% MSC dispensed as a mixture into U-bottom Ultra-Low Attachment 384-well plates (Corning, NY)
High-throughput Drug Combination Screening.
Prior to their inoculation into 384-well plates, malignant cells, HUVEC, and hMSC were removed from T flasks using TrypLE express (Thermo Fisher Scientific, cat. 12605036) and harvested by centrifugation for 5 min at 233 x g. […]

[1] = curve of first compound, second compound 0.3 µM
[2] = curve of first compound, second compound 0.949 µM
[3] = curve of first compound, second compound 3 µM
[4] = curve of first compound, second compound 9.49 µM
[5] = curve of first compound, second compound 30 µM
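Also: spheroids exposed to drugs for seven days before readout.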

In the case of `CCCS(=O)(=O)Nc1ccc(F)c(C(=O)c2c[nH]c3ncc(-c4ccc(Cl)cc4)cc23)c1F` + CC(C)NCC(C(=O)N1CCN(c2ncnc3c2C(C)CC3O)CC1)c1ccc(Cl)cc1, the IC50 [1] is reported as 29900 nM, the IC50 [2] is reported as over 100000 nM and the IC50 [3] is reported as 11000 nM. The IC50 [4] was 5500 nM, the IC50 [5] was under 316 nM and the viability, T/C (second compound 0.3 µM, first compound 0.316 µM) was 109%. The viability, T/C (second compound 0.3 µM, first compound 1 µM) was 106%, the viability, T/C (second compound 0.3 µM, first compound 3.16 µM) was 102% and the viability, T/C (second compound 0.3 µM, first compound 10 µM) was 67.5%. For the same molecule, the viability, T/C (second compound 0.3 µM, first compound 31.6 µM) was 44.7%, the viability, T/C (second compound 0.3 µM, first compound 100 µM) was 52.2% and the viability, T/C (second compound 0.949 µM, first compound 0.316 µM) was 95.2%. The viability, T/C (second compound 0.949 µM, first compound 1 µM) was 104%, the viability, T/C (second compound 0.949 µM, first compound 3.16 µM) was 89.6% and the viability, T/C (second compound 0.949 µM, first compound 10 µM) was 52.5%. For the same molecule, the viability, T/C (second compound 0.949 µM, first compound 31.6 µM) was 41.4%, the viability, T/C (second compound 0.949 µM, first compound 100 µM) was 65.2% and the viability, T/C (second compound 3 µM, first compound 0.316 µM) was 94.7%. It also gave a viability, T/C (second compound 3 µM, first compound 1 µM) of 96%, a viability, T/C (second compound 3 µM, first compound 3.16 µM) of 81.3% and a viability, T/C (second compound 3 µM, first compound 10 µM) of 44.2%. For the same molecule, the viability, T/C (second compound 3 µM, first compound 31.6 µM) was 41%, the viability, T/C (second compound 3 µM, first compound 100 µM) was 16.8% and the viability, T/C (second compound 9.49 µM, first compound 0.316 µM) was 72.5%. For the same molecule, the viability, T/C (second compound 9.49 µM, first compound 1 µM) was 75.4%, the viability, T/C (second compound 9.49 µM, first compound 3.16 µM) was 62.5% and the viability, T/C (second compound 9.49 µM, first compound 10 µM) was 35.5%. The viability, T/C (second compound 9.49 µM, first compound 31.6 µM) was 26.2%, the viability, T/C (second compound 9.49 µM, first compound 100 µM) was 17.7% and the viability, T/C (second compound 30 µM, first compound 0.316 µM) was 48.3%. It also gave a viability, T/C (second compound 30 µM, first compound 1 µM) of 49.2%, a viability, T/C (second compound 30 µM, first compound 3.16 µM) of 35.7% and a viability, T/C (second compound 30 µM, first compound 10 µM) of 16.6%. For the same molecule, the viability, T/C (second compound 30 µM, first compound 31.6 µM) was 14.9% and the viability, T/C (second compound 30 µM, first compound 100 µM) was 9.5%.

`COc1c(OCCCN2CCOCC2)ccc2c3n(c(=NC(=O)c4cnc(N)nc4)nc12)CCN3` was tested, and the viability, T/C (compound 0.00316 µM) was 74.5% and 83.2%, the viability, T/C (compound 0.01 µM) was 43.7% and 51.3% and the viability, T/C (compound 0.0316 µM) was 28.2% and 30.1%. The viability, T/C (compound 0.1 µM) was 14.5% and 16.6%, the viability, T/C (compound 0.316 µM) was 10.4% and 12.4% and the viability, T/C (compound 1 µM) was 8.83% and 11.2%. For the same molecule, the IC50 (curve of compound) was 8.15 nM and 10.9 nM.

Molecule `CC(C)n1nc(-c2ccc3oc(N)nc3c2)c2c(N)ncnc21` + CC(C)NCC(C(=O)N1CCN(c2ncnc3c2C(C)CC3O)CC1)c1ccc(Cl)cc1 has an IC50 [1] of 9.58 nM, an IC50 [2] of 8.57 nM and an IC50 [3] of 6.94 nM. The IC50 [4] was 2.52 nM, the IC50 [5] was under 0.316 nM and the viability, T/C (second compound 0.3 µM, first compound 0.000316 µM) was 81%. The viability, T/C (second compound 0.3 µM, first compound 0.001 µM) was 77.2%, the viability, T/C (second compound 0.3 µM, first compound 0.00316 µM) was 67.4% and the viability, T/C (second compound 0.3 µM, first compound 0.01 µM) was 49.9%. It also gave a viability, T/C (second compound 0.3 µM, first compound 0.0316 µM) of 35.3%, a viability, T/C (second compound 0.3 µM, first compound 0.1 µM) of 32.2% and a viability, T/C (second compound 0.949 µM, first compound 0.000316 µM) of 81.6%. For the same molecule, the viability, T/C (second compound 0.949 µM, first compound 0.001 µM) was 70.9%, the viability, T/C (second compound 0.949 µM, first compound 0.00316 µM) was 63.7% and the viability, T/C (second compound 0.949 µM, first compound 0.01 µM) was 48.9%. It also gave a viability, T/C (second compound 0.949 µM, first compound 0.0316 µM) of 35%, a viability, T/C (second compound 0.949 µM, first compound 0.1 µM) of 32.2% and a viability, T/C (second compound 3 µM, first compound 0.000316 µM) of 73.6%. It also gave a viability, T/C (second compound 3 µM, first compound 0.001 µM) of 73%, a viability, T/C (second compound 3 µM, first compound 0.00316 µM) of 62.2% and a viability, T/C (second compound 3 µM, first compound 0.01 µM) of 43.8%. It also gave a viability, T/C (second compound 3 µM, first compound 0.0316 µM) of 34.2%, a viability, T/C (second compound 3 µM, first compound 0.1 µM) of 29% and a viability, T/C (second compound 9.49 µM, first compound 0.000316 µM) of 63.7%. The viability, T/C (second compound 9.49 µM, first compound 0.001 µM) was 57%, the viability, T/C (second compound 9.49 µM, first compound 0.00316 µM) was 48.3% and the viability, T/C (second compound 9.49 µM, first compound 0.01 µM) was 37.8%. The viability, T/C (second compound 9.49 µM, first compound 0.0316 µM) was 27.6%, the viability, T/C (second compound 9.49 µM, first compound 0.1 µM) was 26.3% and the viability, T/C (second compound 30 µM, first compound 0.000316 µM) was 43.4%. It also gave a viability, T/C (second compound 30 µM, first compound 0.001 µM) of 39.7%, a viability, T/C (second compound 30 µM, first compound 0.00316 µM) of 33.7% and a viability, T/C (second compound 30 µM, first compound 0.01 µM) of 26.4%. For the same molecule, the viability, T/C (second compound 30 µM, first compound 0.0316 µM) was 23.9% and the viability, T/C (second compound 30 µM, first compound 0.1 µM) was 21.7%.

`CC(C)n1nc(-c2ccc3oc(N)nc3c2)c2c(N)ncnc21` was tested, and the viability, T/C (compound 0.000316 µM) was 101% and 103%, the viability, T/C (compound 0.001 µM) was 87.1% and 91% and the viability, T/C (compound 0.00316 µM) was 75.5% and 74.6%. The viability, T/C (compound 0.01 µM) was 61.5% and 58.3%, the viability, T/C (compound 0.0316 µM) was 40.3% and 43% and the viability, T/C (compound 0.1 µM) was 31.9% and 32.7%. The IC50 (curve of compound) was 19.3 nM and 18.6 nM.

`CC(C)CC(NC(=O)CNC(=O)c1cc(Cl)ccc1Cl)B1OC(=O)CC(CC(=O)O)(C(=O)O)O1` (stereo not drawn) was tested, and the viability, T/C (compound 0.000316 µM) was 99.7% and 104%, the viability, T/C (compound 0.001 µM) was 107% and 92.5% and the viability, T/C (compound 0.00316 µM) was 105% and 99.2%. The viability, T/C (compound 0.01 µM) was 107% and 102%, the viability, T/C (compound 0.0316 µM) was 37.5% and 35.4% and the viability, T/C (compound 0.1 µM) was 11.4% and 6.93%. For the same molecule, the IC50 (curve of compound) was 25.5 nM and 24.4 nM.

With `Cc1nc(NC(=O)N2CCCC2C(N)=O)sc1-c1ccnc(C(C)(C)C(F)(F)F)c1` (stereo not drawn) the viability, T/C (compound 0.0316 µM) was 97.9% and 99.8%, the viability, T/C (compound 0.1 µM) was 78.4% and 71.1% and the viability, T/C (compound 0.316 µM) was 61.5% and 55.7%. For the same molecule, the viability, T/C (compound 1 µM) was 44.4% and 38.9%, the viability, T/C (compound 3.16 µM) was 30.1% and 28.9% and the viability, T/C (compound 10 µM) was 20.4% and 22.4%. The IC50 (curve of compound) was 672 nM and 422 nM.
